Calls of active or inactive are those of the source.
How the values were obtained:
[1] = target: Dual specificity tyrosine-phosphorylation-regulated kinase 1A (Homo sapiens, UniProt Q13627)
[2] = target: T1, Mitogen-activated protein kinase 15 (Homo sapiens, UniProt Q8TD08)
T1 sequence (Q8TD08 whole entry): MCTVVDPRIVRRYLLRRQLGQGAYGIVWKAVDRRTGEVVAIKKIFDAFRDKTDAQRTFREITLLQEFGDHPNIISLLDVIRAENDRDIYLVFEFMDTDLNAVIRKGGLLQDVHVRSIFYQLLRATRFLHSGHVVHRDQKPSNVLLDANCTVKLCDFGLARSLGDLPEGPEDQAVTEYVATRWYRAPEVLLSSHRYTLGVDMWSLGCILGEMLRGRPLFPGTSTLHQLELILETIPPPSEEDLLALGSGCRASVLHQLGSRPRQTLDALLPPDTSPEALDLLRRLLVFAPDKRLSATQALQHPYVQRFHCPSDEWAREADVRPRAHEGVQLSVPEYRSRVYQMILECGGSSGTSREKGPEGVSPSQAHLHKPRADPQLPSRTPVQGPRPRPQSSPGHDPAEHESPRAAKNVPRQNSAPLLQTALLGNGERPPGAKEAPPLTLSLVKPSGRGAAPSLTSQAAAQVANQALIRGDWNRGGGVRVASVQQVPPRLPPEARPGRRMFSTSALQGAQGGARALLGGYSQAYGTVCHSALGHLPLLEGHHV

[3] = target: T2, Glycine--tRNA ligase (Homo sapiens, UniProt P41250)
T2 sequence (P41250 whole entry): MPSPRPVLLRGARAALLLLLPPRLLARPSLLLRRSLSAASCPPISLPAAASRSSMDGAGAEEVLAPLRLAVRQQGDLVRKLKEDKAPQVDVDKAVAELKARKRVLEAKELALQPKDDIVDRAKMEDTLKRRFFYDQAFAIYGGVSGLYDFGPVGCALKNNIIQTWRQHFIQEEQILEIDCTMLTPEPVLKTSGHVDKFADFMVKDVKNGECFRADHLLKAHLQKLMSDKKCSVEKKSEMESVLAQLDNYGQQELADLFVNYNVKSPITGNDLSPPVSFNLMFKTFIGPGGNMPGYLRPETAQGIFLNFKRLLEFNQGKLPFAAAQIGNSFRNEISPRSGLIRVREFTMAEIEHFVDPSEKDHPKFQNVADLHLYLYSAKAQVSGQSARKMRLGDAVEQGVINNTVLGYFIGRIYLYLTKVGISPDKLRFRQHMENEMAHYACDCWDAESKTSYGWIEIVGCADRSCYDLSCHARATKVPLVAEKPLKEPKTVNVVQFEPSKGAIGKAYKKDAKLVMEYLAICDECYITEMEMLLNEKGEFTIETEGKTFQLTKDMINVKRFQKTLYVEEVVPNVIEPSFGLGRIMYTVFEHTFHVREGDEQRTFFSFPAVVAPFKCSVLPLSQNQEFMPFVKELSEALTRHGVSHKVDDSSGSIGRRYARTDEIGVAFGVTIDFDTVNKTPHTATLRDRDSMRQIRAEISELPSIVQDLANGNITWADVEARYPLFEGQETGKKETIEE

[4] = target: Mitogen-activated protein kinase kinase kinase kinase 4 (Homo sapiens, UniProt O95819)
Sequence of Mitogen-activated protein kinase kinase kinase kinase 4 (O95819 whole entry): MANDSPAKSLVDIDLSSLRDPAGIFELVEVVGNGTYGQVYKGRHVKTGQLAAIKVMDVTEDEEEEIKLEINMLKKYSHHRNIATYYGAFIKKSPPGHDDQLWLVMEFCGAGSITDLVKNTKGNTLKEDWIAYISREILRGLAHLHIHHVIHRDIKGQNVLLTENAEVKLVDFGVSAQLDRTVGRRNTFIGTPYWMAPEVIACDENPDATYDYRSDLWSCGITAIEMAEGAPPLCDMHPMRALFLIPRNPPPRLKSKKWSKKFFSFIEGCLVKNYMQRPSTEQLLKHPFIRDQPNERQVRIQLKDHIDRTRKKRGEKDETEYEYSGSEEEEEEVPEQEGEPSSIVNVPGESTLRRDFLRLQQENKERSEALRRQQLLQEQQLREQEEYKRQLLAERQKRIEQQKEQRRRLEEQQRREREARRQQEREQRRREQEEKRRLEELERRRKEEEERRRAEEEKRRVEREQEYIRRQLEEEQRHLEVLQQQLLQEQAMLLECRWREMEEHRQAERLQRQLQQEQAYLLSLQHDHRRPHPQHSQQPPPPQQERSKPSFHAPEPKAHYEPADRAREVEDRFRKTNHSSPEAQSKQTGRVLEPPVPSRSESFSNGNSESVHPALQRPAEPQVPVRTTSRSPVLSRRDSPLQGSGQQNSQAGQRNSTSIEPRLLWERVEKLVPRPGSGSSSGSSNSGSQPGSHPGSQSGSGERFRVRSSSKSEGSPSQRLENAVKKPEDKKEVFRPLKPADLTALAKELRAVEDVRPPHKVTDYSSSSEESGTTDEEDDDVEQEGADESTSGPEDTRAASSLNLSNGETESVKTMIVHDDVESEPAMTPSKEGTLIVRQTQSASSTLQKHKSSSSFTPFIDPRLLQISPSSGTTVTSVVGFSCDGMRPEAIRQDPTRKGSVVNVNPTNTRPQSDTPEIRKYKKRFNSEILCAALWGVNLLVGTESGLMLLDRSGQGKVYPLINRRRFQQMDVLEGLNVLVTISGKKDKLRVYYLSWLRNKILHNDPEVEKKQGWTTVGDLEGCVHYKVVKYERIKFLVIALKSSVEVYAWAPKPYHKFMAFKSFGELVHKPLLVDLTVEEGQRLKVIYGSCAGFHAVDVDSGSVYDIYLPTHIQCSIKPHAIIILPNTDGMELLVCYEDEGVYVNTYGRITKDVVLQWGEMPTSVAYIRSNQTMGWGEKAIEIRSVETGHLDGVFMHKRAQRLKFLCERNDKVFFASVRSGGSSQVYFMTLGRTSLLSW

[5] = target: Atypical kinase COQ8A, mitochondrial (Homo sapiens, UniProt Q8NI60)
Sequence of Atypical kinase COQ8A, mitochondrial (Q8NI60 whole entry): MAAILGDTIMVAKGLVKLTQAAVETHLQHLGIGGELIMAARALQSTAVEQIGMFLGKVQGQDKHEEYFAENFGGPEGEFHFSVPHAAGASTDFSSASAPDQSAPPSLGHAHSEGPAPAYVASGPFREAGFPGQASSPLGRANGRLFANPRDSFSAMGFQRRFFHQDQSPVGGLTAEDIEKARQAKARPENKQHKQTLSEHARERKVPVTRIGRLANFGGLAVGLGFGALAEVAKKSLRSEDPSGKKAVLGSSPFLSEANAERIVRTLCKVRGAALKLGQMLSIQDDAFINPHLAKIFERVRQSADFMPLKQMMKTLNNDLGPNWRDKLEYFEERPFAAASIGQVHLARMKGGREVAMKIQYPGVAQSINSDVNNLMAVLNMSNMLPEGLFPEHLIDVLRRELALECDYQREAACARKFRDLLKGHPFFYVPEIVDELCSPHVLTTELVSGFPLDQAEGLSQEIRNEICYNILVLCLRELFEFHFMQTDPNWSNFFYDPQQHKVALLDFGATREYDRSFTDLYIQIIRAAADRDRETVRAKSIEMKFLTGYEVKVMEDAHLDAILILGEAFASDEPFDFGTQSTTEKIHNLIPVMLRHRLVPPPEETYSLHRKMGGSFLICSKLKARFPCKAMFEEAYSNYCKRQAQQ

[6] = target: T3, Cysteine--tRNA ligase, cytoplasmic (Homo sapiens, UniProt P49589)
T3 sequence (P49589 whole entry): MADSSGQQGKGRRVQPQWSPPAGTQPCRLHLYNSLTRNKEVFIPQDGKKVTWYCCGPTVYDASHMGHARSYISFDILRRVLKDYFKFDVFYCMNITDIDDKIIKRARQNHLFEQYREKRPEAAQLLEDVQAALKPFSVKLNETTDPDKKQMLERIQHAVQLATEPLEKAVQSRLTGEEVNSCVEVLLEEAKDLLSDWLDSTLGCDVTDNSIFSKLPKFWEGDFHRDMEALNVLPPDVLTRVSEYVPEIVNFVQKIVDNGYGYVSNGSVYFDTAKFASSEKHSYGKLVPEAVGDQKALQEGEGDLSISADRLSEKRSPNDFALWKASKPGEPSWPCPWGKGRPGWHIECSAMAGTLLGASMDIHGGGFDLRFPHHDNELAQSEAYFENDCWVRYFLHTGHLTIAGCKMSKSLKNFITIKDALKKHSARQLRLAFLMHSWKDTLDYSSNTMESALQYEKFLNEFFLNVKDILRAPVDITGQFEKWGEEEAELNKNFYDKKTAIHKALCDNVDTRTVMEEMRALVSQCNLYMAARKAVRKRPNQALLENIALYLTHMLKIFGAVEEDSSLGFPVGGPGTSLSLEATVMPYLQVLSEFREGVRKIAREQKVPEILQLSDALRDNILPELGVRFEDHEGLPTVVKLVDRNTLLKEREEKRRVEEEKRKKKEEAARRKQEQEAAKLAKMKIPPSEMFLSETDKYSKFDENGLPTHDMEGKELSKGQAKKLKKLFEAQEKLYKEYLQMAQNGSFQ

[7] = target: STE20-like serine/threonine-protein kinase (Homo sapiens, UniProt Q9H2G2)
Sequence of STE20-like serine/threonine-protein kinase (Q9H2G2 whole entry): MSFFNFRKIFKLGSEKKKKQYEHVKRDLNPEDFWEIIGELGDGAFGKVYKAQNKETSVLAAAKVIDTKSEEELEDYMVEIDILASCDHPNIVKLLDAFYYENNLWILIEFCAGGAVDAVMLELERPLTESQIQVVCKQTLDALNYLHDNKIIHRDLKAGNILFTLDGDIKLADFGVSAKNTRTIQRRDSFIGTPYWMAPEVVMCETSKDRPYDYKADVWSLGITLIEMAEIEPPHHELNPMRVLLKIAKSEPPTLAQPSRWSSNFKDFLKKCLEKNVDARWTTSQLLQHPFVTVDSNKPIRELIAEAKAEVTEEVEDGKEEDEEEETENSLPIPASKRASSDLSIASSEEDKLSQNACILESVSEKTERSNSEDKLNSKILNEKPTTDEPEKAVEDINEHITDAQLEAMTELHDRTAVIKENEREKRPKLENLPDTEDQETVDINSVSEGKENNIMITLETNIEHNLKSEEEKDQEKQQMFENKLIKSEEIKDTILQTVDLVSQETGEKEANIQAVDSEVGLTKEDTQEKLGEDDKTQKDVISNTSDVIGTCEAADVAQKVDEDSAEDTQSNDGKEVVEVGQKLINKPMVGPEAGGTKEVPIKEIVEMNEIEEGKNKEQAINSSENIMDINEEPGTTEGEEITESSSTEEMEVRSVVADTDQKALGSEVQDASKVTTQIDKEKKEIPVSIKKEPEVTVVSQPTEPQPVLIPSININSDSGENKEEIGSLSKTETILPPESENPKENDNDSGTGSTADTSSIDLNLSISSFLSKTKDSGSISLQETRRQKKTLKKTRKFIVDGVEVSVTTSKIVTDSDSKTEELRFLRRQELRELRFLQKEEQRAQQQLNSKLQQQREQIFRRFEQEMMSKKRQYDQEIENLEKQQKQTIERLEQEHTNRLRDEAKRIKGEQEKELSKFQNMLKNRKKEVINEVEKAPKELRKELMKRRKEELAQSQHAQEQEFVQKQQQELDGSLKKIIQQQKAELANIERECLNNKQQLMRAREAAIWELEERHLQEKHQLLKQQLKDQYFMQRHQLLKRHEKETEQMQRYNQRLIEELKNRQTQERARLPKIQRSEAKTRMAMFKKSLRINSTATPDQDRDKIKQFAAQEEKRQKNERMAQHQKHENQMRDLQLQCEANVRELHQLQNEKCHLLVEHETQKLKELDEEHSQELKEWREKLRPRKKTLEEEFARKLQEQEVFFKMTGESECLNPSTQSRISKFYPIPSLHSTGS

[8] = target: Serine/threonine-protein kinase SIK2 (Homo sapiens, UniProt Q9H0K1)
Sequence of Serine/threonine-protein kinase SIK2 (Q9H0K1 whole entry): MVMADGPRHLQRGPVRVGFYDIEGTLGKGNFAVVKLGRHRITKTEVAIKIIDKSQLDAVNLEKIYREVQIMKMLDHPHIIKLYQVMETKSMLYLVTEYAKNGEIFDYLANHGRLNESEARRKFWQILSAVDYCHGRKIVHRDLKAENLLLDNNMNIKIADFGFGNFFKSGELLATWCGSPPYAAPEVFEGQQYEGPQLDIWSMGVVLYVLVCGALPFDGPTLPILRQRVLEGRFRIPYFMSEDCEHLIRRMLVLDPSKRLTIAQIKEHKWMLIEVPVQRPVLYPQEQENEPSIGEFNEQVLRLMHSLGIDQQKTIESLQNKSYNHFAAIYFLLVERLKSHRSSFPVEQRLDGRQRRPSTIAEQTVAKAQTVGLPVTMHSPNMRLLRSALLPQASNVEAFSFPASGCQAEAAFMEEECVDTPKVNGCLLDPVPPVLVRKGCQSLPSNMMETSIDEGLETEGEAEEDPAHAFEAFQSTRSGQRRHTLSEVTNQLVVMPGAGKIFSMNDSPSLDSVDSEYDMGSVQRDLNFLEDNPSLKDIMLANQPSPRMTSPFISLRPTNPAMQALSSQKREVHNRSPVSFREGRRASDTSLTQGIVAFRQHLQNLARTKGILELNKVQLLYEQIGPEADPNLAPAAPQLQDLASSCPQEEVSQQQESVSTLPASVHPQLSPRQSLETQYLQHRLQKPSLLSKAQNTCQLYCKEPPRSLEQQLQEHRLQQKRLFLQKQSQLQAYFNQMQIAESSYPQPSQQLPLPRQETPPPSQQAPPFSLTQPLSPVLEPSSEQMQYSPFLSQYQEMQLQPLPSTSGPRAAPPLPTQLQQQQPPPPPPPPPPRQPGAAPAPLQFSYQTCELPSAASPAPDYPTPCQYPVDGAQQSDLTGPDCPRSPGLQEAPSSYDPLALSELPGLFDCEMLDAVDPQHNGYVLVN

[9] = target: Midasin (Homo sapiens, UniProt Q9NU22)
[10] = target: Casein kinase I isoform epsilon (Homo sapiens, UniProt P49674)
Sequence of Casein kinase I isoform epsilon (P49674 whole entry, canonical isoform): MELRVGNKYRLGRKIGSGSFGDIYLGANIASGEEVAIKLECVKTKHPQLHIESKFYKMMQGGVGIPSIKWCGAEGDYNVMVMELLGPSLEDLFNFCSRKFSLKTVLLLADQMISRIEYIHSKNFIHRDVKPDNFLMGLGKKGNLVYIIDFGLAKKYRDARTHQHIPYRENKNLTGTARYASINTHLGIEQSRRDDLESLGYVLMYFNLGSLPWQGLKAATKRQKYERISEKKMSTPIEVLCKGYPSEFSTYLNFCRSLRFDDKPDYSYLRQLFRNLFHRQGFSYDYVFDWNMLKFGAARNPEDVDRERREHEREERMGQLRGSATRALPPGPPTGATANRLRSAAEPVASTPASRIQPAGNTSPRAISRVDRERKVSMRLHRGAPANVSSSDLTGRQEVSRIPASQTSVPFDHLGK

[11] = target: Serine/threonine-protein kinase MRCK beta (Homo sapiens, UniProt Q9Y5S2)
[12] = target: GTP-binding nuclear protein Ran (Homo sapiens, UniProt P62826)
Note: in the data inactive means no Kd found up to 30 µM.

SMILES | Kd [1] | Kd [2] | Kd [3] | Kd [4] | Kd [5] | Kd [6] | Kd [7] | Kd [8] | Kd [9] | Kd [10] | Kd [11] | Kd [12]
CN1CCC(CNc2ccc3ncc(-c4cccc(OC(F)(F)F)c4)n3n2)CC1 [SGI-1776] | > 30 µM (inactive) | > 30 µM (inactive) | > 30 µM (inactive) | > 30 µM (inactive) | > 30 µM (inactive) | > 30 µM (inactive) | 3.59 µM (active) | 6.12 µM (active) | > 30 µM (inactive) | > 30 µM (inactive) | > 30 µM (inactive) | > 30 µM (inactive)
CCCS(=O)(=O)Nc1ccc(F)c(C(=O)c2c[nH]c3ncc(-c4ccc(Cl)cc4)cc23)c1F [VEMURAFENIB] | > 30 µM (inactive) | > 30 µM (inactive) | > 30 µM (inactive) | > 30 µM (inactive) | > 30 µM (inactive) | > 30 µM (inactive) | > 30 µM (inactive) | > 30 µM (inactive) | > 30 µM (inactive) | > 30 µM (inactive) | > 30 µM (inactive) | > 30 µM (inactive)

From ChEMBL document CHEMBL3991601, “The target landscape of clinical kinase drugs” (Science, 2017)
